Active and inactive are the calls of the source. No cut-off for these calls is given here.
Assays:
[1] = Cytotoxicity against PMA-differentiated human U937 macrophages assessed as cell viability at 20 uM after 24 hrs by MTT assay relative to untreated control; format: cell-based, U-937; conditions: read-out: Activity
U-937 [2] = test: Antiinflammatory activity in PMA-differentiated human U937 cells assessed as inhibition of LPS-induced TNFalpha secretion at 80 uM preincubated for 2 hrs followed by LPS stimulation and measured after 24 hrs post LPS challenge by ELISA relative to control; format: functional
[3] = Cytotoxicity against PMA-differentiated human U937 macrophages assessed as cell viability at 10 uM after 24 hrs by MTT assay relative to untreated control; format: cell-based, U-937; conditions: read-out: Activity
U-937 [4] = test: Antiinflammatory activity in PMA-differentiated human U937 cells assessed as inhibition of LPS-induced TNFalpha secretion at 20 uM preincubated for 2 hrs followed by LPS stimulation and measured after 24 hrs post LPS challenge by ELISA relative to control; format: functional
U-937 [5] = test: Antiinflammatory activity in PMA-differentiated human U937 cells assessed as inhibition of LPS-induced TNFalpha secretion at 40 uM preincubated for 2 hrs followed by LPS stimulation and measured after 24 hrs post LPS challenge by ELISA relative to control; format: functional
[6] = molecular target: Toll-like receptor 4 (Homo sapiens) (UniProt O00206); test: (§1) Inhibition of TLR4 in human U937-3xkappaB-LUC cells assessed as inhibition of Aggregatibacter actinomycetemcomitans LPS-induced NF-kappaB activation at 20 uM preincubated for 30 mins followed by LPS stimulation and measured after 6 hrs post LPS challenge by Bright-Glo luciferase reporter gene assay relative to control
[7] = Cytotoxicity against PMA-differentiated human U937 macrophages assessed as cell viability at 80 uM after 24 hrs by MTT assay relative to untreated control; format: cell-based, U-937; conditions: read-out: Activity
[8] = molecular target: Toll-like receptor 4 (Homo sapiens) (UniProt O00206); test: as §1, with “5” for “20”
[9] = Cytotoxicity against PMA-differentiated human U937 macrophages assessed as cell viability at 40 uM after 24 hrs by MTT assay relative to untreated control; format: cell-based, U-937; conditions: read-out: Activity
U-937 [10] = test: Antiinflammatory activity in PMA-differentiated human U937 cells assessed as inhibition of LPS-induced TNFalpha secretion at 10 uM preincubated for 2 hrs followed by LPS stimulation and measured after 24 hrs post LPS challenge by ELISA relative to control; format: functional
[11] = molecular target: Toll-like receptor 4 (Homo sapiens) (UniProt O00206); test: as §1, with “10” for “20”
[12] = molecular target: T1, Peroxisome proliferator-activated receptor gamma (Homo sapiens) (UniProt P37231); test: Binding affinity to recombinant human PPARgamma LBD at 40 uM by TR-FRET based green polar-screen PPAR competitor assay
T1 sequence (whole entry): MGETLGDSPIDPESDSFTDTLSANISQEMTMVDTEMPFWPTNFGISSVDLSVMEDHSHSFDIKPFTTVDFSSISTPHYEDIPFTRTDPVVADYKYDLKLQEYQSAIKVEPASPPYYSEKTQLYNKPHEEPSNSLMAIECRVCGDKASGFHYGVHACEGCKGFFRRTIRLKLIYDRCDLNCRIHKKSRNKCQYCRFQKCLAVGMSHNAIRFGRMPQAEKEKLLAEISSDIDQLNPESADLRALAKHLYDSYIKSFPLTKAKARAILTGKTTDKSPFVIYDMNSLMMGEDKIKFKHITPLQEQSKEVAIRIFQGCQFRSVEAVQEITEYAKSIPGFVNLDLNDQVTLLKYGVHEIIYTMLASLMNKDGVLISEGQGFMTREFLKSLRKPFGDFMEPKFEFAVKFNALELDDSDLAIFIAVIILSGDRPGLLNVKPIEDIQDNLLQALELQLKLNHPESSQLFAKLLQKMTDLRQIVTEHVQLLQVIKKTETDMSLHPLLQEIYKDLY

[13] = molecular target: Toll-like receptor 4 (Homo sapiens) (UniProt O00206); test: as §1, with “50” for “20”
U-937 [14] = test: Antiinflammatory activity in human U937 cells assessed as inhibition Aggregatibacter actinomycetemcomitans LPS-induced IL-1beta secretion at 10 to 80 uM preincubated for 2 hrs followed by LPS stimulation and measured after 24 hrs post LPS challenge by ELISA; format: functional, cell-based
U-937 [15] = test: Antiinflammatory activity in human U937 cells assessed as inhibition of LPS-induced IL-1beta production preincubated for 2 hrs followed by LPS stimulation and measured after 24 hrs post LPS challenge by ELISA; format: functional, cell-based
[16] = molecular target: Toll-like receptor 4 (Homo sapiens) (UniProt O00206); test: as §1, with “activation” for “activation at 20 uM”
U-937 [17] = test: Antiinflammatory activity in human U937 cells assessed as inhibition of LPS-induced IL-8 production at 10 to 20 uM preincubated for 2 hrs followed by LPS stimulation and measured after 24 hrs post LPS challenge by ELISA; format: functional, cell-based
U-937 [18] = test: Antiinflammatory activity in human U937 cells assessed as inhibition of Escherichia coli LPS-induced TNFalpha secretion at 10 to 80 uM preincubated for 2 hrs followed by LPS stimulation and measured after 24 hrs post LPS challenge by ELISA; format: functional, cell-based
[19] = molecular target: Toll-like receptor 4 (Homo sapiens) (UniProt O00206); test: as §1, with “Escherichia coli” for “Aggregatibacter actinomycetemcomitans”, “5 to 50” for “20”
U-937 [20] = test: Antiinflammatory activity in human U937 cells assessed as inhibition of LPS-induced IL-8 production at 40 to 80 uM preincubated for 2 hrs followed by LPS stimulation and measured after 24 hrs post LPS challenge by ELISA; format: functional, cell-based
[21] = molecular target: Toll-like receptor 4 (Homo sapiens) (UniProt O00206); test: as §1, with “5 to 50” for “20”
U-937 [22] = test: Antiinflammatory activity in human U937 cells assessed as inhibition Aggregatibacter actinomycetemcomitans LPS-induced TNFalpha secretion at 10 to 80 uM preincubated for 2 hrs followed by LPS stimulation and measured after 24 hrs post LPS challenge by ELISA; format: functional, cell-based
U-937 [23] = test: Antiinflammatory activity in human U937 cells assessed as inhibition of LPS-induced IL-6 production at 40 to 80 uM preincubated for 2 hrs followed by LPS stimulation and measured after 24 hrs post LPS challenge by ELISA; format: functional, cell-based
U-937 [24] = test: Antiinflammatory activity in human U937 cells assessed as inhibition of LPS-induced IL-8 production at 20 uM preincubated for 2 hrs followed by LPS stimulation and measured after 24 hrs post LPS challenge by ELISA; format: functional, cell-based
U-937 [25] = test: Antiinflammatory activity in human U937 cells assessed as inhibition of Escherichia coli LPS-induced IL-1beta secretion at 10 to 80 uM preincubated for 2 hrs followed by LPS stimulation and measured after 24 hrs post LPS challenge by ELISA; format: functional, cell-based
U-937 [26] = test: Antiinflammatory activity in human U937 cells assessed as inhibition of LPS-induced IL-1beta production at 20 uM preincubated for 2 hrs followed by LPS stimulation and measured after 24 hrs post LPS challenge by ELISA; format: functional, cell-based
U-937 [27] = test: Antiinflammatory activity in human U937 cells assessed as inhibition of LPS-induced IL-8 production preincubated for 2 hrs followed by LPS stimulation and measured after 24 hrs post LPS challenge by ELISA; format: functional
U-937 [28] = test: Antiinflammatory activity in human U937 cells assessed as inhibition of LPS-induced IL-1beta production at 10 to 80 uM preincubated for 2 hrs followed by LPS stimulation and measured after 24 hrs post LPS challenge by ELISA; format: functional, cell-based
U-937 [29] = test: Antiinflammatory activity in human U937 cells assessed as inhibition of LPS-induced IL-6 production at 10 to 80 uM preincubated for 2 hrs followed by LPS stimulation and measured after 24 hrs post LPS challenge by ELISA; format: functional, cell-based

Toll-like receptor 4 (Homo sapiens), sequence (O00206 whole entry, the tested form may be a part): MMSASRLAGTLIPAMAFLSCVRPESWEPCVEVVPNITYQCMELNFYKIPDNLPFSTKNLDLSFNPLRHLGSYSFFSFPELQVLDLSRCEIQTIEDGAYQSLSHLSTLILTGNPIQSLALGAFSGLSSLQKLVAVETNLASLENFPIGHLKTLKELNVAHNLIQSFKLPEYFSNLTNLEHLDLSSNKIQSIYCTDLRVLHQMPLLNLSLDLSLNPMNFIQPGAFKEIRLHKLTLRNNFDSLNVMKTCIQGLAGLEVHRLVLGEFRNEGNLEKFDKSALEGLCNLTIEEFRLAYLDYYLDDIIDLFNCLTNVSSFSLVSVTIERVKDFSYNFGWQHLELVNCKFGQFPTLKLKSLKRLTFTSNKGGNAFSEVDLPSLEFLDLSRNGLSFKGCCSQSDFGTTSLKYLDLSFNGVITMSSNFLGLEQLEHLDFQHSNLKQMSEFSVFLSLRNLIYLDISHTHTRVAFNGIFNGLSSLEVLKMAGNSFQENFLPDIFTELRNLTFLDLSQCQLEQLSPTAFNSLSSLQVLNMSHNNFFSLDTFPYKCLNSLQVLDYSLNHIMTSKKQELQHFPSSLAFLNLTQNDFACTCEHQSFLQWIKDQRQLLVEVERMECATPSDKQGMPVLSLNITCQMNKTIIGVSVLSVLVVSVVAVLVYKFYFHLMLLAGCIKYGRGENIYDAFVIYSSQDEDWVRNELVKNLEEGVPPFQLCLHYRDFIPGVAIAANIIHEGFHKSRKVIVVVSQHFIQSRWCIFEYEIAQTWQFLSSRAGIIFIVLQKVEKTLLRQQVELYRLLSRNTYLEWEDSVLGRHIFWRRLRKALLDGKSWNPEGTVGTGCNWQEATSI

Row | inhibition [6] | inhibition [8] | inhibition [11] | Activity [12] | inhibition [13] | inhibition [16] | SMILES | viability at 24 h, 20 µM [1] | inhibition at 80 µM (U-937 [2]) | viability at 24 h, 10 µM [3] | inhibition at 20 µM (U-937 [4]) | inhibition at 40 µM (U-937 [5]) | viability at 24 h, 80 µM [7] | viability at 24 h, 40 µM [9] | inhibition at 10 µM (U-937 [10]) | also measured
1 | 48% | 26% | 29% | Active | 36% |  | CCCCCc1cc(O)cc(O)c1Oc1cc(OC)cc2c1C(=O)OC2(O)CCCC (configuration not stated) | 124% | 7% | 118% | 0% | 0% | 114% | 122% | 0% | 
2 | 75% | 37% | 52% | Active | 98% | Dose-dependent effect | CCCCCc1c(Oc2cc(OC)cc(C(=O)CCCC)c2C(=O)OC)c(O)cc(O)c1C(=O)O | 86% | 100% | 96% | 0% | 55% | 48% | 67% | 0% | inhibition (U-937 [14]): Active; inhibition (U-937 [15]): Dose-dependent effect; inhibition (U-937 [17]): inactive; inhibition (U-937 [18]): Active; inhibition [19]: Active; inhibition (U-937 [20]): Active; inhibition [21]: Active; inhibition (U-937 [22]): Active; inhibition (U-937 [23]): Active; inhibition (U-937 [26]): inactive; inhibition (U-937 [25]): Active
3 | 29% | 12% | 15% |  | 34% |  | CCCCCc1cc(O)cc(O)c1Oc1cc2c(cc1OC)C(CCCC)(OC)OC2=O (configuration not stated) | 96% | 100% | 116% | 0% | 0% | 24% | 87% | 0% | 
4 | 52% | 23% | 39% | Active | 52% |  | CCCCCc1cc(O)cc(O)c1Oc1cc(OC)cc(C(=O)CCCC)c1C(=O)OC | 105% | 55% | 119% | 0% | 0% | 66% | 85% | 0% | 
5 | 60% | 26% | 28% |  | 99% | Dose-dependent effect | CCC/C=C1\OC(=O)c2cc(Oc3c(O)cc(O)cc3CCCCC)c(OC)cc21 | 101% | 100% | 117% | 0% | 90% | 10% | 38% | 0% | inhibition (U-937 [28]): inactive; inhibition (U-937 [29]): inactive

Continued, molecule first:

Row | SMILES | inhibition [6] | inhibition [8] | inhibition [11] | Activity [12] | inhibition [13] | inhibition [16] | viability at 24 h, 20 µM [1] | inhibition at 80 µM (U-937 [2]) | viability at 24 h, 10 µM [3] | inhibition at 20 µM (U-937 [4]) | inhibition at 40 µM (U-937 [5]) | viability at 24 h, 80 µM [7] | viability at 24 h, 40 µM [9] | inhibition at 10 µM (U-937 [10]) | also measured
6 | CCCCCc1c(Oc2cc3c(cc2OC)C(CCCC)(OC)OC3=O)c(O)cc(O)c1C(=O)O (configuration not stated) | 63% | 27% | 39% |  | 84% |  | 131% | 100% | 126% | 0% | 3% | 52% | 121% | 0% | 
7 | CCCCCc1c2c(cc(O)c1C(=O)O)OC(=O)c1c(cc(OC)cc1C(=O)CCCC)O2 [LOBARIC ACID] | 78% | 29% | 42% | Active | 99% | Dose-dependent effect | 121% | 100% | 118% | 89% | 100% | 90% | 73% | 1% | inhibition (U-937 [14]): Dose-dependent effect; inhibition (U-937 [15]): Dose-dependent effect; inhibition (U-937 [17]): inactive; inhibition (U-937 [18]): Dose-dependent effect; inhibition [19]: Dose-dependent effect; inhibition (U-937 [20]): Active; inhibition [21]: Dose-dependent effect; inhibition (U-937 [22]): Dose-dependent effect; inhibition (U-937 [23]): Active; inhibition (U-937 [24]): inactive; inhibition (U-937 [25]): Dose-dependent effect
8 | CN(CCOc1ccc(CC2SC(=O)NC2=O)cc1)c1ccccn1 (configuration not stated) |  |  |  | Active |  |  |  |  |  |  |  |  |  |  | 
9 | COC(=O)c1c(C)cc(O)c(C)c1O [ATRARIC ACID] | 36% | 27% | 19% | inactive | 25% |  | 118% | 0% | 112% | 0% | 0% | 125% | 116% | 0% | 
10 | COC(=O)c1c(C)cc(O)c(C=O)c1O [METHYL HAEMATOMMATE] | 38% | 17% | 24% |  | 67% |  | 102% | 80% | 119% | 3% | 41% | 82% | 102% | 0% | inhibition (U-937 [27]): Dose-dependent effect

Source: ChEMBL document CHEMBL4261648, “Lobaric acid and pseudodepsidones inhibit NF-κB signaling pathway by activation of PPAR-γ” (Bioorg Med Chem, 2018)
